# Key:
# Experiment in all cases: KINOMEscan competition binding
# Settings in all cases: compound 1.0 µM
# BMPR2 (human) = BMPR2 (human) (UniProt Q13873)
# BTK (human) = BTK (human) (UniProt Q06187)
# CAMK1D (human) = CAMK1D (human) (UniProt Q8IU85)
# CAMK2G (human) = CAMK2G (human) (UniProt Q13555)
# CAMKK2 (human) = CAMKK2 (human) (UniProt Q96RR4)
# CDK14 (human) = CDK14 (human) (UniProt O94921)
# CDK2 (human) = CDK2 (human) (UniProt P24941)
# CDK3 (human) = CDK3 (human) (UniProt Q00526)
# CDK7 (human) = CDK7 (human) (UniProt P50613)
# CLK1 (human) = CLK1 (human) (UniProt P49759)
# CLK2 (human) = CLK2 (human) (UniProt P49760)
# CLK3 (human) = CLK3 (human) (UniProt P49761)
# CRK2 (P.falciparum) = CRK2 (P.falciparum) (UniProt P61075)
# CSNK1G2 (human) = CSNK1G2 (human) (UniProt P78368)
# DCLK2 (human) = DCLK2 (human) (UniProt Q8N568)
# EPHB6 (human) = EPHB6 (human) (UniProt O15197)
# [1] = test system: FLT3 (human), P36888 [R834Q]
# FRK (human) = FRK (human) (UniProt P42685)
# FYN (human) = FYN (human) (UniProt P06241)
# HUNK (human) = HUNK (human) (UniProt P57058)
# ITK (human) = ITK (human) (UniProt Q08881)
# [2] = molecular target: JAK3 JH1 catalytic (human) (UniProt P52333)
# [3] = test system: KIT (human), P10721 [V559D]
# LCK (human) = LCK (human) (UniProt P06239)
# MAP2K3 (human) = MAP2K3 (human) (UniProt P46734)
# MAP3K12 (human) = MAP3K12 (human) (UniProt Q12852)
# MAP3K4 (human) = MAP3K4 (human) (UniProt Q9Y6R4)
# MAPK3 (human) = MAPK3 (human) (UniProt P27361)
# MLTK (human) = MLTK (human) (UniProt Q9NYL2)
# MUSK (human) = MUSK (human) (UniProt O15146)
# NEK4 (human) = NEK4 (human) (UniProt P51957)
# PAK1 (human) = PAK1 (human) (UniProt Q13153)
# [4] = test system: PIK3CA (human), P42336 [H1047L]
# PRKAA2 (human) = PRKAA2 (human) (UniProt P54646)
# RAF1 (human) = RAF1 (human) (UniProt P04049)
# RET (human) = RET (human) (UniProt P07949)
# RPS6KA6 KD2 (human) = RPS6KA6 KD2 (human) (UniProt Q9UK32)
# SGK110 (human) = SGK110 (human) (UniProt P0C264)
# SLK (human) = SLK (human) (UniProt Q9H2G2)
# SRPK3 (human) = SRPK3 (human) (UniProt Q9UPE1)
# TESK1 (human) = TESK1 (human) (UniProt Q15569)
# TYRO3 (human) = TYRO3 (human) (UniProt Q06418)
# WEE2 (human) = WEE2 (human) (UniProt P0C1S8)
# Sequence of EPHB6 (human) (O15197 whole entry, looked up): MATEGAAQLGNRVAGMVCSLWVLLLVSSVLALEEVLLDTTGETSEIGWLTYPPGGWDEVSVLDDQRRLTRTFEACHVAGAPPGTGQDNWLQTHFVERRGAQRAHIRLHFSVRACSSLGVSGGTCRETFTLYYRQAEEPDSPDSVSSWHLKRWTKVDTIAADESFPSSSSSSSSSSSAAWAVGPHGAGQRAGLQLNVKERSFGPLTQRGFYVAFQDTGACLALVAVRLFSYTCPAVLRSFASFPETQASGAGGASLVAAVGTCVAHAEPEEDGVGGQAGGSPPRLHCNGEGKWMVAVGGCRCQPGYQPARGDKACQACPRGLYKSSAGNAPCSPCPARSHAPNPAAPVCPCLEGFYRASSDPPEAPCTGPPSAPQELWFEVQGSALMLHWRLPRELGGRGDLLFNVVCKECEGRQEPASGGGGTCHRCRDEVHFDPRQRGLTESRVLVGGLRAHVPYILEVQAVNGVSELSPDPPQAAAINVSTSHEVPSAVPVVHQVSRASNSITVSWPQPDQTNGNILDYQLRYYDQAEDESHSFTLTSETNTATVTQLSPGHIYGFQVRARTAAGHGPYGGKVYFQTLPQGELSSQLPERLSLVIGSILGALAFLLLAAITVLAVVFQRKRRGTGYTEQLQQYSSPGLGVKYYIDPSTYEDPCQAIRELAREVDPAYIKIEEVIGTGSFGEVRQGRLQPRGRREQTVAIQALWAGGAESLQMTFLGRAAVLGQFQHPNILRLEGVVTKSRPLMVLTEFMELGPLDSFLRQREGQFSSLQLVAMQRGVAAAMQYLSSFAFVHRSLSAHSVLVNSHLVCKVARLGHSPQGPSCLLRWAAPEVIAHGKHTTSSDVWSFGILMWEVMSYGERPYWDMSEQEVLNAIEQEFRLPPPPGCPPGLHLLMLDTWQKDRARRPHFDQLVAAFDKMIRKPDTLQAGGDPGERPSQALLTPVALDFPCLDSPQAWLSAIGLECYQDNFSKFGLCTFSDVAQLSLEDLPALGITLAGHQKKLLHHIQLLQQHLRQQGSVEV
# Sequence of FYN (human) (P06241 whole entry, looked up): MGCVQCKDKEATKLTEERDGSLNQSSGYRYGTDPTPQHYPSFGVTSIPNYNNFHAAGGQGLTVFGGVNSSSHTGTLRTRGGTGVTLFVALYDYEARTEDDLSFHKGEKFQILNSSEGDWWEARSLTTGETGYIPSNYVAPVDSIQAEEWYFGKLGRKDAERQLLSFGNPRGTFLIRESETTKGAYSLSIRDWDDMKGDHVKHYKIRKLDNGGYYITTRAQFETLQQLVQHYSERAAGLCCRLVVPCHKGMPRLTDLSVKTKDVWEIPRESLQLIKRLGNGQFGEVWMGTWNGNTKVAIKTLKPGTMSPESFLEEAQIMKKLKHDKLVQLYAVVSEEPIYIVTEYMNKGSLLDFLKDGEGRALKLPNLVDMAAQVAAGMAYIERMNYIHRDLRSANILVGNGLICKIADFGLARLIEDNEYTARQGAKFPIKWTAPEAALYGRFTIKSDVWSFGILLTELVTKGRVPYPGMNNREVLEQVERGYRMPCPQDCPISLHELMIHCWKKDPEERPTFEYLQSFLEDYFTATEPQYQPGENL
# Sequence of MAP3K4 (human) (Q9Y6R4 whole entry, looked up): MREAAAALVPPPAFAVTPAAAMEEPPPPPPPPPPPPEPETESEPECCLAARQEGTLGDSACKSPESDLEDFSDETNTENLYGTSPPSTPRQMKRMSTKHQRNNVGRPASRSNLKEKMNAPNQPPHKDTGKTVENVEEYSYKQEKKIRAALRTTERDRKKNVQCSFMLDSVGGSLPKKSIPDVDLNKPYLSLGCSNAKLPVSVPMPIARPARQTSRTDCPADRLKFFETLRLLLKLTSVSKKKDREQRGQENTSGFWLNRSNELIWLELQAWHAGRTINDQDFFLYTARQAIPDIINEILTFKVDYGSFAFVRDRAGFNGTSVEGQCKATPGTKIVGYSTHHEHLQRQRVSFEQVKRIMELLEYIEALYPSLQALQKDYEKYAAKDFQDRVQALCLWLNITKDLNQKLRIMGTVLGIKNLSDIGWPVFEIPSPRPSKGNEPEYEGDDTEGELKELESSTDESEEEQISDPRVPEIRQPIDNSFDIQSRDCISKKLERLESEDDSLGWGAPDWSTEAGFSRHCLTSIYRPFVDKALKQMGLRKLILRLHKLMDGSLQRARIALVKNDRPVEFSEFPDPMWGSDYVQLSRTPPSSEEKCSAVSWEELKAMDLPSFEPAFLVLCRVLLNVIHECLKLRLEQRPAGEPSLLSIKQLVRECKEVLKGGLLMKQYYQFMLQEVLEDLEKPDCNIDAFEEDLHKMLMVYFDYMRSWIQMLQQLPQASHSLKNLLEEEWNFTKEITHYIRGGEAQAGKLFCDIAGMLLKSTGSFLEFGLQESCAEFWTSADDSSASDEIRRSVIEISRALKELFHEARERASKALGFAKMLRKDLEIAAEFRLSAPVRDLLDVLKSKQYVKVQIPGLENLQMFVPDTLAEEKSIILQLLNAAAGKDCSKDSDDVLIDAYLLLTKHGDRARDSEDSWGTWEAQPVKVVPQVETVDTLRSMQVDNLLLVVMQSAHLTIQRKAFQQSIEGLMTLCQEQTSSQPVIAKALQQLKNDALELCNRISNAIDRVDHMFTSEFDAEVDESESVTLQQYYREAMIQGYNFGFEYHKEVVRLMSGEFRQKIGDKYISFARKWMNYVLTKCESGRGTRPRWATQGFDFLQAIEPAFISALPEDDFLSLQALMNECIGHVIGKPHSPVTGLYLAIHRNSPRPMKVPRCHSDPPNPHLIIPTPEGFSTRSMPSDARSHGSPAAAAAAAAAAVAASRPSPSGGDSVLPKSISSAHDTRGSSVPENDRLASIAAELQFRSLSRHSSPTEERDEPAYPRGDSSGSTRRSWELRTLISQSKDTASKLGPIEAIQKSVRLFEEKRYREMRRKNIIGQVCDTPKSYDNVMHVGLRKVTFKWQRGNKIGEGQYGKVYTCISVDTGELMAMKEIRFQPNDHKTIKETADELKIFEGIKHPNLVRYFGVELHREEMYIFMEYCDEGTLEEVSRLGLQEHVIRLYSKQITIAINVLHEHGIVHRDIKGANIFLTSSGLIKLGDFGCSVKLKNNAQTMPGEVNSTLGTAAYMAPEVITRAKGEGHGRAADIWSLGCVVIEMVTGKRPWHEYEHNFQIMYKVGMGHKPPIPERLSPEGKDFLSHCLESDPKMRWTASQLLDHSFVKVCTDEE
# Sequence of ITK (human) (Q08881 whole entry, looked up): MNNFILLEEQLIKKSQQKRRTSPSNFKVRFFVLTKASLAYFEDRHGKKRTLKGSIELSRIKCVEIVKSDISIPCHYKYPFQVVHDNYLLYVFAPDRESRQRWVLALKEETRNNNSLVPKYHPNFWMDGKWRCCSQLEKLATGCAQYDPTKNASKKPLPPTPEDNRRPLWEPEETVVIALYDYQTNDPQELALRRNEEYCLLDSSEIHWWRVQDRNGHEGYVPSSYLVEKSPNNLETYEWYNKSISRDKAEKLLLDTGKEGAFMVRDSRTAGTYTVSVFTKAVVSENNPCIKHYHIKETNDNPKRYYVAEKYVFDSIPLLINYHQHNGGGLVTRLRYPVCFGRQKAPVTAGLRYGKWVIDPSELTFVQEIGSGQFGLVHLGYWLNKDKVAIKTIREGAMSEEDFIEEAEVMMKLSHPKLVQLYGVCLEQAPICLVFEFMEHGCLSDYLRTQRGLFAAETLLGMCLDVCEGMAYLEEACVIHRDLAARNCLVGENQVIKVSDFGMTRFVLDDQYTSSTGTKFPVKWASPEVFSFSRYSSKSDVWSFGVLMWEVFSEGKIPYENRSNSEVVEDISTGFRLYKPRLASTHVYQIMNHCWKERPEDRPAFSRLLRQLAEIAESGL
# Sequence of CAMKK2 (human) (Q96RR4 whole entry, looked up): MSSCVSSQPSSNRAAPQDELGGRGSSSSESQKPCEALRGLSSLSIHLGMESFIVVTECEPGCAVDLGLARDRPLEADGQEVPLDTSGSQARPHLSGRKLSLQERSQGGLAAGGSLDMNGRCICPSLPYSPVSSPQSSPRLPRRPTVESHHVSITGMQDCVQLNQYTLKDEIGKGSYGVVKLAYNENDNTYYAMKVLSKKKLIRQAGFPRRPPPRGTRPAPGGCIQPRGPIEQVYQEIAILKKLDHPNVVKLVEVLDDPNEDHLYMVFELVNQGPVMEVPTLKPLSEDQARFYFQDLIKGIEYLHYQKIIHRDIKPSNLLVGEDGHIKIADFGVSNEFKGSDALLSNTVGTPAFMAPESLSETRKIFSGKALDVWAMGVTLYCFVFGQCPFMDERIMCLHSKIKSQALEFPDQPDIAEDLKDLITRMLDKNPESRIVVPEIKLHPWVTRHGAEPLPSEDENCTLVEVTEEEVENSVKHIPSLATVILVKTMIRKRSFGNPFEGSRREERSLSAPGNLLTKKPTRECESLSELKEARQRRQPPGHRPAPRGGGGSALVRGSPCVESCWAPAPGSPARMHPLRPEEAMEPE
# Sequence of CDK7 (human) (P50613 whole entry, looked up): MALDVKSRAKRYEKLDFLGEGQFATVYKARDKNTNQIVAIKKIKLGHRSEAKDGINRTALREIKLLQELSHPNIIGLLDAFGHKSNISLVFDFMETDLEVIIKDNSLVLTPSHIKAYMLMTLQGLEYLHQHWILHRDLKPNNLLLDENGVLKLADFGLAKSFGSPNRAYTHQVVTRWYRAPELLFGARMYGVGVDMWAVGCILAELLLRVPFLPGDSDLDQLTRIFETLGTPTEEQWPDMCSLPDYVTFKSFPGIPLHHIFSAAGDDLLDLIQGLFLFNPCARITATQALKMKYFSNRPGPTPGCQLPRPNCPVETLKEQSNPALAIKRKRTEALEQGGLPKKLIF
# Sequence of MAP2K3 (human) (P46734 whole entry, looked up): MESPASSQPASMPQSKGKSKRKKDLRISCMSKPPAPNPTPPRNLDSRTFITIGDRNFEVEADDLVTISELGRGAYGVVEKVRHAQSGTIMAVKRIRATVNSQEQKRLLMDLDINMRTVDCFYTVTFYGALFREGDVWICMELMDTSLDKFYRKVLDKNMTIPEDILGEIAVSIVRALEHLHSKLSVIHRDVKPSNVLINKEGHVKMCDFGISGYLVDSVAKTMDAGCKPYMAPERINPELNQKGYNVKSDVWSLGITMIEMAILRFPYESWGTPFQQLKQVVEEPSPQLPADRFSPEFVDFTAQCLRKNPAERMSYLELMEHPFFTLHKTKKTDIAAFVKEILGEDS
structure (smiles),measurement,setting,value
CN(C)C/C=C/C(=O)Nc1cccc(C(=O)Nc2ccc(Nc3nccc(-c4c(-c5ccccc5)nn5ccccc45)n3)cc2)c1,"kinase still bound, per cent of control",BMPR2 (human),100%
same,"kinase still bound, per cent of control",BTK (human),100%
same,"kinase still bound, per cent of control",CAMK1D (human),100%
same,"kinase still bound, per cent of control",CAMK2G (human),100%
same,"kinase still bound, per cent of control",CAMKK2 (human),100%
same,"kinase still bound, per cent of control",CDK14 (human),100%
same,"kinase still bound, per cent of control",CDK2 (human),100%
same,"kinase still bound, per cent of control",CDK3 (human),100%
same,"kinase still bound, per cent of control",CDK7 (human),83%
same,"kinase still bound, per cent of control",CLK1 (human),95%
same,"kinase still bound, per cent of control",CLK2 (human),90%
same,"kinase still bound, per cent of control",CLK3 (human),100%
same,"kinase still bound, per cent of control",CRK2 (P.falciparum),100%
same,"kinase still bound, per cent of control",CSNK1G2 (human),0.85%
same,"kinase still bound, per cent of control",DCLK2 (human),100%
same,"kinase still bound, per cent of control",EPHB6 (human),9.4%
same,"kinase still bound, per cent of control",[1],68%
same,"kinase still bound, per cent of control",FRK (human),32%
same,"kinase still bound, per cent of control",FYN (human),49%
same,"kinase still bound, per cent of control",HUNK (human),67%
same,"kinase still bound, per cent of control",ITK (human),100%
same,"kinase still bound, per cent of control",[2],49%
same,"kinase still bound, per cent of control",[3],0.6%
same,"kinase still bound, per cent of control",LCK (human),8.6%
same,"kinase still bound, per cent of control",MAP2K3 (human),58%
same,"kinase still bound, per cent of control",MAP3K12 (human),84%
same,"kinase still bound, per cent of control",MAP3K4 (human),80%
same,"kinase still bound, per cent of control",MAPK3 (human),100%
same,"kinase still bound, per cent of control",MLTK (human),11%
same,"kinase still bound, per cent of control",MUSK (human),100%
same,"kinase still bound, per cent of control",NEK4 (human),100%
same,"kinase still bound, per cent of control",PAK1 (human),98%
same,"kinase still bound, per cent of control",[4],77%
same,"kinase still bound, per cent of control",PRKAA2 (human),90%
same,"kinase still bound, per cent of control",RAF1 (human),83%
same,"kinase still bound, per cent of control",RET (human),8.3%
same,"kinase still bound, per cent of control",RPS6KA6 KD2 (human),13%
same,"kinase still bound, per cent of control",SGK110 (human),100%
same,"kinase still bound, per cent of control",SLK (human),18%
same,"kinase still bound, per cent of control",SRPK3 (human),100%
same,"kinase still bound, per cent of control",TESK1 (human),99%
same,"kinase still bound, per cent of control",TYRO3 (human),81%
same,"kinase still bound, per cent of control",WEE2 (human),100%
CN(C)C/C=C/C(=O)Nc1cccc(C(=O)Nc2ccc(Nc3nccc(/C(C#N)=C4\Nc5ccccc5S4)n3)cc2)c1,"kinase still bound, per cent of control",BMPR2 (human),50%
same,"kinase still bound, per cent of control",BTK (human),76%
same,"kinase still bound, per cent of control",CAMK1D (human),100%
same,"kinase still bound, per cent of control",CAMK2G (human),100%
same,"kinase still bound, per cent of control",CAMKK2 (human),100%
same,"kinase still bound, per cent of control",CDK14 (human),100%
same,"kinase still bound, per cent of control",CDK2 (human),100%
same,"kinase still bound, per cent of control",CDK3 (human),100%
same,"kinase still bound, per cent of control",CDK7 (human),94%
same,"kinase still bound, per cent of control",CLK1 (human),42%
same,"kinase still bound, per cent of control",CLK2 (human),100%
same,"kinase still bound, per cent of control",CLK3 (human),100%
same,"kinase still bound, per cent of control",CRK2 (P.falciparum),100%
same,"kinase still bound, per cent of control",CSNK1G2 (human),22%
same,"kinase still bound, per cent of control",DCLK2 (human),100%
same,"kinase still bound, per cent of control",EPHB6 (human),49%
same,"kinase still bound, per cent of control",[1],100%
same,"kinase still bound, per cent of control",FRK (human),100%
same,"kinase still bound, per cent of control",FYN (human),95%
same,"kinase still bound, per cent of control",HUNK (human),99%
same,"kinase still bound, per cent of control",ITK (human),85%
same,"kinase still bound, per cent of control",[2],83%
same,"kinase still bound, per cent of control",[3],11%
same,"kinase still bound, per cent of control",LCK (human),100%
same,"kinase still bound, per cent of control",MAP2K3 (human),88%
same,"kinase still bound, per cent of control",MAP3K12 (human),100%
same,"kinase still bound, per cent of control",MAP3K4 (human),100%
same,"kinase still bound, per cent of control",MAPK3 (human),100%
same,"kinase still bound, per cent of control",MLTK (human),98%
same,"kinase still bound, per cent of control",MUSK (human),70%
same,"kinase still bound, per cent of control",NEK4 (human),100%
same,"kinase still bound, per cent of control",PAK1 (human),100%
same,"kinase still bound, per cent of control",[4],100%
same,"kinase still bound, per cent of control",PRKAA2 (human),100%
same,"kinase still bound, per cent of control",RAF1 (human),91%
same,"kinase still bound, per cent of control",RET (human),91%
same,"kinase still bound, per cent of control",RPS6KA6 KD2 (human),100%
same,"kinase still bound, per cent of control",SGK110 (human),100%
same,"kinase still bound, per cent of control",SLK (human),8.6%
same,"kinase still bound, per cent of control",SRPK3 (human),82%
same,"kinase still bound, per cent of control",TESK1 (human),100%
same,"kinase still bound, per cent of control",TYRO3 (human),100%
same,"kinase still bound, per cent of control",WEE2 (human),100%
